According to patent US20240285674A1, “USE OF SULFATE GLUCO-GALACTO-OLIGOSACCHARIDE IN PREPARATION OF ANTICOAGULANT AND/OR ANTITHROMBOTIC DRUG” (NANJING UNIVERSITY OF SCIENCE AND TECHNOLOGY, priority 2021, published 2024):

Experiments:
Coagulation factor FXa = Coagulation factor FXa (Homo sapiens, UniProt P00742); assay: Inhibitory activity on coagulation factor FXa (chromogenic substrate CS-11(22)); assay type: biochemical; details: sample 1 mg/mL; for Inhibitory effect on coagulation factor FXa: incubated at 37° C. for 1 h
Experimental: (§1) • a. 100 μL of FXa (5 nM) and 50 μL of the sulfate gluco-galacto-oligosaccharide sample (1 mg/mL) were mixed in a 96-well plate, incubated at 37° C. for 1 h, added with 50 μL of a substrate CS-11(22) (1.77 mM), and detected at a wavelength of 405 nm for 60 min, detecting once every minute. • b. 100 μL of HFXIa (human coagulation factor XIa, 1 nM) and 50 μL of the sulfate gluco-galacto-oligosaccharide sample (1 mg/mL) were mixed in a 96-well plate, incubated at 37° C. for 1 h, added with 50 μL of a substrate S2366 (1 mM), and detected at a wavelength of 405 nm for 60 min, detecting once every minute. • c. 100 μL of FXIIa (4 nM) and 50 μL of the sulfate gluco-galacto-oligosaccharide sample (1 mg/mL) were mixed in a 96-well plate, incubated 37° C. for 1 h, added with 50 μL of a substrate Pefachrome FXIIa/TH5253 (1 mM), and detected at a wavelength of 405 nm for 60 min, detecting once every minute. • d. 100 μL of Trypsin (8.3 nM) and 50 μL of the sulfate gluco-galacto-oligosaccharide sample (1 mg/mL) were mixed in a 96-well plate, incubated 37° C. for 1 h, added with 50 μL of a substrate CS-11(22) (1 mM), and detected at a wavelength of 405 nm for 60 min, detecting once every minute. • e. 100 μL of Thrombin (0.2 IU/mL) and 50 μL of the sulfate gluco-galacto-oligosaccharide sample (1 mg/mL) were mixed in a 96-well plate, incubated at 37° C. for 1 h, added with 50 μL of a substrate CS-01(38) (400 μM), and detected at a wavelength of 405 nm for 60 min, detecting once every minute. • f. 100 μL of Kallikrein (1 nM) and 50 μL of the sulfate gluco-galacto-oligosaccharide sample (1 mg/mL) were mixed in a 96-well plate, incubated 37° C. for 1 h, added with 50 μL of a substrate CS-31(02) (1 mM), and detected at a wavelength of 405 nm for 60 min, detecting once every minute.
(§2) Data processing was conducted using the software Graphpad Prism 6.0. Regression analysis was conducted with the reaction time as an abscissa and the absorbance value at 405 nm as an ordinate.
The calculated inhibition rate=(V0−V1)/V0×100%. […] The degree of sulfation of the sulfate gluco-galacto-oligosaccharide was controlled by controlling the ratio of gluco-galacto-oligosaccharide and sulfating reagent. […] It was seen that the more sulfate groups on average per sugar residue, the higher the inhibition rate of FXa by the sulfate gluco-galacto-oligosaccharide.

[1] = molecular target: T1, HFXIa (human coagulation factor XIa) (Homo sapiens, UniProt P03951); assay: Inhibitory activity on coagulation factor XIa (chromogenic substrate S2366); assay type: biochemical; details: sample 1 mg/mL, incubated at 37° C. for 1 h
T1 construct: HFXIa (human coagulation factor XIa, 1 nM)
Experimental: as §1, with “100 μL of Thrombin (0.2 IU/mL) and 50 μL of the sulfate gluco-galacto-oligosaccharide sample (1 mg/mL) were mixed in a 96-well plate, incubated at 37° C. for 1 h, added with 50 μL of a substrate CS-01(38) (400 μM), and detected at a wavelength of 405 nm for 60 min, detecting once every minute. • f. 100 μL of Kallikrein (1 nM) and 50 μL of the sulfate gluco-galacto-oligosaccharide sample (1 mg/mL) were mixed in a 96-well plate, incubated 37° C. for 1 h, added with 50 μL of a substrate CS-31(02) (1 mM), and detected at a wavelength of 405 nm for 60 min, detecting once every minute.” left out
as §2

Kallikrein = Kallikrein (Homo sapiens, UniProt P03952); assay: Inhibitory activity on kallikrein (chromogenic substrate CS-31(02)); assay type: biochemical; details: sample 1 mg/mL, incubated at 37° C. for 1 h
Experimental: as §1, with “100 μL of Thrombin (0.2 IU/mL) and 50 μL of the sulfate gluco-galacto-oligosaccharide sample (1 mg/mL) were mixed in a 96-well plate, incubated at 37° C. for 1 h, added with 50 μL of a substrate CS-01(38) (400 μM), and detected at a wavelength of 405 nm for 60 min, detecting once every minute. • f. 100 μL of Kallikrein (1 nM) and 50 μL of the sulfate gluco-galacto-oligosaccharide sample (1 mg/mL) were mixed in a 96-well plate, incubated 37° C. for 1 h, added with 50 μL of a substrate CS-31(02) (1 mM), and detected at a wavelength of 405 nm for 60 min, detecting once every minute.” left out
as §2

Thrombin = molecular target: T2, Thrombin (Homo sapiens, UniProt P00734); assay: Inhibitory activity on thrombin (chromogenic substrate CS-01(38)); assay type: biochemical; details: sample 1 mg/mL, incubated at 37° C. for 1 h
T2 construct: 100 μL of Thrombin (0.2 IU/mL)
Experimental: as §1, with “100 μL of Thrombin (0.2 IU/mL) and 50 μL of the sulfate gluco-galacto-oligosaccharide sample (1 mg/mL) were mixed in a 96-well plate, incubated at 37° C. for 1 h, added with 50 μL of a substrate CS-01(38) (400 μM), and detected at a wavelength of 405 nm for 60 min, detecting once every minute. • f. 100 μL of Kallikrein (1 nM) and 50 μL of the sulfate gluco-galacto-oligosaccharide sample (1 mg/mL) were mixed in a 96-well plate, incubated 37° C. for 1 h, added with 50 μL of a substrate CS-31(02) (1 mM), and detected at a wavelength of 405 nm for 60 min, detecting once every minute.” left out
as §2

[2] = tested on: intrinsic coagulation pathway; assay: Activated partial thromboplastin time (APTT) of plasma from mice after tail vein injection; assay type: in vivo, C57/BL-6J mice; details: 0.25, 0.5 and 1.0 mg/mL injected into the tail vein
Experimental: The experimental animals were male C57/BL-6J mice, weighing 18 g to 20 g. The mice were housed under standard experimental conditions with a 12-hour light-12-hour dark cycle with free access to water and food. The mice were anesthetized by intraperitoneal injection of 5% chloral hydrate, and administration of the drug was administered through the tail vein after confirming that the mice were completely anesthetized and had no eyelid reflex. The mice were randomly divided into four groups. […]
Activated partial thromboplastin time (APTT) is a duration required to observe plasma coagulation after adding an APTT reagent and calcium ions to the tested plasma. […] The APTT was measured according to the operating procedures in the kit instructions, and the fibrin formation time was read on the coagulometer. […]
The coagulation time of the physiological saline group was recorded as 1 times, and the multiples of APTT of the sulfate gluco-galacto-oligosaccharide samples with different concentrations relative to the physiological saline group were calculated.

[3] = tested on: ferric chloride-induced carotid artery thrombosis; assay: Ferric chloride-induced carotid artery thrombosis model, blood vessel occlusion time; assay type: in vivo, C57/BL-6J mice; details: tail vein, mice
Experimental: (§3) The experimental animals were male C57/BL-6J mice, weighing 18 g to 20 g. The mice were housed under standard experimental conditions with a 12-hour light-12-hour dark cycle with free access to water and food. The mice were anesthetized by intraperitoneal injection of 5% chloral hydrate, and administration of the drug was administered through the tail vein after confirming that the mice were completely anesthetized and had no eyelid reflex. The mice were randomly divided into three groups. A first group was a negative control group and was injected with physiological saline through the tail vein; a second group was a low-dose group, with 0.5 mg/mL sulfate gluco-galacto-oligosaccharide injected into the tail vein; and a third group was a high-dose group, with 1.0 mg/mL sulfate gluco-galacto-oligosaccharide injected into the tail vein. After tail vein administration, the mouse carotid arteries were dissected, and a filter paper piece (1 mm×2 mm) dipped in 6.0% ferric chloride solution was applied to the outer wall of the mouse carotid artery to allow induction for 3 min to construct a ferric chloride-induced carotid artery thrombosis model.
The blood flow and thrombosis of the mouse carotid arteries were observed using a laser speckle flow imager, and the mouse carotid arteries were observed under the moorFLPI-2 lens for 15 min. The carotid arteries of the mice at the end of the observation were carefully dissected and stained with HE.
Charts were produced using GraphPad Prism 6.0 software, and statistical differences were analyzed using one-way analysis of variance and Dunnett's multiple comparisons. P<0.05 indicated a significant difference.
Blood vessel occlusion time refers to a duration from removal of the filter paper soaked in ferric chloride to the blood vessel occlusion. If no thrombosis was observed 15 min after removal of the ferric chloride filter paper, 15 min was considered as the vessel occlusion time. Combined with FIG. 3, in the negative control group (physiological saline group), the average blood vessel occlusion time was 4.5±0.23 min. […]

Trypsin = assay: Inhibitory activity on trypsin (chromogenic substrate CS-11(22)); assay type: biochemical; details: sample 1 mg/mL, incubated at 37° C. for 1 h
Experimental: as §1, with “100 μL of Thrombin (0.2 IU/mL) and 50 μL of the sulfate gluco-galacto-oligosaccharide sample (1 mg/mL) were mixed in a 96-well plate, incubated at 37° C. for 1 h, added with 50 μL of a substrate CS-01(38) (400 μM), and detected at a wavelength of 405 nm for 60 min, detecting once every minute. • f. 100 μL of Kallikrein (1 nM) and 50 μL of the sulfate gluco-galacto-oligosaccharide sample (1 mg/mL) were mixed in a 96-well plate, incubated 37° C. for 1 h, added with 50 μL of a substrate CS-31(02) (1 mM), and detected at a wavelength of 405 nm for 60 min, detecting once every minute.” left out
as §2

Coagulation factor FXIIa = molecular target: T3, Coagulation factor FXIIa (Homo sapiens, UniProt P00748); assay: Inhibitory activity on FXIIa (chromogenic substrate Pefachrome FXIIa/TH5253); assay type: biochemical; details: sample 1 mg/mL, incubated at 37° C. for 1 h
T3 sequence (P00748 373-615 limits assumed): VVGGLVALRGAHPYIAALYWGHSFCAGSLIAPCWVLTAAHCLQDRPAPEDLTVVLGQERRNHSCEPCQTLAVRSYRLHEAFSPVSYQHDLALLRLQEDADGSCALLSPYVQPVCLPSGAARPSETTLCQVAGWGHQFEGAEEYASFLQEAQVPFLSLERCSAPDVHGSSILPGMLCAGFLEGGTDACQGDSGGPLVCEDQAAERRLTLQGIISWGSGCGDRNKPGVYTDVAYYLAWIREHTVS
Experimental: as §1, with “100 μL of Thrombin (0.2 IU/mL) and 50 μL of the sulfate gluco-galacto-oligosaccharide sample (1 mg/mL) were mixed in a 96-well plate, incubated at 37° C. for 1 h, added with 50 μL of a substrate CS-01(38) (400 μM), and detected at a wavelength of 405 nm for 60 min, detecting once every minute. • f. 100 μL of Kallikrein (1 nM) and 50 μL of the sulfate gluco-galacto-oligosaccharide sample (1 mg/mL) were mixed in a 96-well plate, incubated 37° C. for 1 h, added with 50 μL of a substrate CS-31(02) (1 mM), and detected at a wavelength of 405 nm for 60 min, detecting once every minute.” left out
as §2

[4] = Tail tip bleeding time (bleeding risk); assay type: in vivo, C57/BL-6J mice; details: tail vein, mice; for cumulative bleeding time: 10 min after administration, capped at 20 min
Experimental: as §3, with “vein.” for “vein. After tail vein administration, the mouse carotid arteries were dissected, and a filter paper piece (1 mm×2 mm) dipped in 6.0% ferric chloride solution was applied to the outer wall of the mouse carotid artery to allow induction for 3 min to construct a ferric chloride-induced carotid artery thrombosis model.”
10 min after administration, the mouse was placed stably with its tail in a naturally straightened state. The mouse tail was cut off 3 mm from the tip, and then immersed in a silanized tube filled with 37° C. physiological saline. Start timing from cutting off the tail tip, 20 min. the accumulated bleeding time t after cutting off the tail tip of the mouse was recorded with a stopwatch. If the bleeding time t was greater than 20 min, it was recorded as 20 min.
Data processing was conducted using the Graphpad Prism 6.0 software. A dot plot of sample concentration was made versus bleeding time. P<0.05 indicated a significant difference.
Bleeding time refers to a duration required from bleeding to natural hemostasis after capillary damage. In the negative control group (physiological saline group), the cumulative bleeding time was 10.35±5.48 min.

Coagulation factor FXa, sequence (P00742 235-488 limits assumed): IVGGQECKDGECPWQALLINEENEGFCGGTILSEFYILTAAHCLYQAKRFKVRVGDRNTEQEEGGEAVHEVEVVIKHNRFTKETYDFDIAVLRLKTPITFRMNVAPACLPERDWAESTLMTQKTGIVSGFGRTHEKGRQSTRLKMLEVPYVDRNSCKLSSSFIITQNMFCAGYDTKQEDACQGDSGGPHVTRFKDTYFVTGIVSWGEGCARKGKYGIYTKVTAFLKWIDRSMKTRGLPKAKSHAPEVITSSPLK
Coagulation factor FXa, sequence (P00742 41-179 limits assumed): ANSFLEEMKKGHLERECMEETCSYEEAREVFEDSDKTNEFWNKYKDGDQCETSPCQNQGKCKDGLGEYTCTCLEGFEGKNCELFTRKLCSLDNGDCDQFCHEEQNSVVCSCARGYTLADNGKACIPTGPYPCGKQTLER
Kallikrein, sequence (P03952 391-638 limits assumed): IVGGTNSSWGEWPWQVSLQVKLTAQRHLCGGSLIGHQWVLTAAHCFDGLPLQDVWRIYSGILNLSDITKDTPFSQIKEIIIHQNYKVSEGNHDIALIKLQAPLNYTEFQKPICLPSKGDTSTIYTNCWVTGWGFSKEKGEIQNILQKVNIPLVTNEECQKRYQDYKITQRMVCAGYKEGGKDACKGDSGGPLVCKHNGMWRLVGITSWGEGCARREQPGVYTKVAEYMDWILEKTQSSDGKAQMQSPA
Kallikrein, sequence (P03952 20-390 partner limits assumed): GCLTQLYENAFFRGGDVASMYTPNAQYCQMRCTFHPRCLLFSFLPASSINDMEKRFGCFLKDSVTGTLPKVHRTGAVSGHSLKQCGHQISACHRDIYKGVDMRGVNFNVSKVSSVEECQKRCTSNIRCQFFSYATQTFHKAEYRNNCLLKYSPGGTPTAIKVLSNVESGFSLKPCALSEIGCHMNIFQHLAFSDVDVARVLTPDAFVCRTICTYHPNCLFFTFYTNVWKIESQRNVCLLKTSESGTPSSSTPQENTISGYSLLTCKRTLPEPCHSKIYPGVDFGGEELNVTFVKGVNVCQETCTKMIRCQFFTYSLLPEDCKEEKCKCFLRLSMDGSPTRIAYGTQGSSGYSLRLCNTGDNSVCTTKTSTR
T1 sequence (P03951 388-625 limits assumed): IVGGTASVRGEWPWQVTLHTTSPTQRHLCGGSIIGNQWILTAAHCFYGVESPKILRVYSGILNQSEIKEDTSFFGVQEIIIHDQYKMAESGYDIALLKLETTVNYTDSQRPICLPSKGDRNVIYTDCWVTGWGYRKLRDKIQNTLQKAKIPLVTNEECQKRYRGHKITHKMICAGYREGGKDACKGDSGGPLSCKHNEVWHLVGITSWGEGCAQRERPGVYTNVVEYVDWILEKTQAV
T1 sequence (P03951 19-387 limits assumed): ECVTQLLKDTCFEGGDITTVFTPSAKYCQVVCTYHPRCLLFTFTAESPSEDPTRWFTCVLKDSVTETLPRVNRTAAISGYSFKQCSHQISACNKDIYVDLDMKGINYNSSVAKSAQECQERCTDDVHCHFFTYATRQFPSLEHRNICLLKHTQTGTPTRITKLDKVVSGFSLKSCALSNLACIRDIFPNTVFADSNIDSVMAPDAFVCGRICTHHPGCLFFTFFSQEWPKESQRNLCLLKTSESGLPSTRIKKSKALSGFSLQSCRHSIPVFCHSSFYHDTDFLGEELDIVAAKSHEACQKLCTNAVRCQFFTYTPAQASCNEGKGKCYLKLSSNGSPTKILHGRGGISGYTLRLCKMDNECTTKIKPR

Substance: gluco-galacto-oligosaccharide [reference compound]
- Inhibitory effect on coagulation factor FXa (Coagulation factor FXa): no inhibitory activity

Substance: sulfate gluco-galacto-oligosaccharide
- Inhibitory effect on coagulation factor FXa (Coagulation factor FXa): Inhibition
- Inhibition rate of FXa (Coagulation factor FXa; listed as sulfate gluco-galacto-oligosaccharide with averagely 1.65 sulfate groups per sug): 57.6%
- Inhibitory effect on coagulation factor FXIa [1]: No inhibition
- Inhibitory effect on Kallikrein (Kallikrein): No inhibition
- Inhibitory effect on Thrombin (Thrombin): No inhibition
- Effect on APTT (plasma coagulation time relative to physiological saline group) [2]: significant impact on APTT
- average blood vessel occlusion time ([3]; 0.5 mg/mL, observed 15 min): 5.4 ± 1.37 min
- Blood flow in carotid artery ([3]; 1.0 mg/mL): remained unchanged
- average blood vessel occlusion time ([3]; 1.0 mg/mL, 15 min recorded if no thrombosis within 15 min): 15 min
- Inhibitory effect on Trypsin (Trypsin): No inhibition
- Inhibitory effect on coagulation factor FXIIa (Coagulation factor FXIIa): No inhibition
- Difference of cumulative bleeding time from physiological saline group ([4]; 0.5 mg/mL and 1.0 mg/mL): no statistically significant difference
- cumulative bleeding time ([4]; 0.5 mg/mL): 11.88 ± 4.44 min
- cumulative bleeding time ([4]; 1.0 mg/mL): 11.60 ± 4.13 min

Substance: sulfate gluco-galacto-oligosaccharide [0.47]
- Inhibition rate of FXa (Coagulation factor FXa): 10.2%

Substance: sulfate gluco-galacto-oligosaccharide [1.23]
- Inhibition rate of FXa (Coagulation factor FXa): 39.2%

Substance: sulfate gluco-galacto-oligosaccharide [2.10]
- Inhibition rate of FXa (Coagulation factor FXa): 65.5%

Substance: sulfate gluco-galacto-oligosaccharide [2.52]
- Inhibition rate of FXa (Coagulation factor FXa): 78.4%
